“And” between values parts separate entries of the source, which are not always exact repeats. Equal entries are not always repeated. Inconclusive results and toxic doses are left out. No stated cut-off is given here; in the data, active means T/C of 150% or more; inactive means T/C below 125%.
Tested on: L1210 leukemia ip in BDF1 mice, survival T/C
Test: NCI In Vivo Anticancer Drug Screen. Data for tumor model L1210 Leukemia (intraperitoneal) in B6D2F1 (BDF1) mice
Conditions: endpoint: mean survival time, higher = longer survival
Outline: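 Transplantable tumor model; survival measured in treated vs vehicle control mice. Value = treated/control.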

[1] = dose: 12.5 mg/kg/injection, schedule: Q01DX009 (ip), vehicle: saline
[2] = dose: 25.0 mg/kg/injection, schedule: Q01DX009 (ip), vehicle: saline
[3] = dose: 25.0 mg/kg/injection, schedule: Q04DX003 (ip), vehicle: saline
[4] = dose: 50.0 mg/kg/injection, schedule: Q01DX009 (ip), vehicle: saline
[5] = dose: 50.0 mg/kg/injection, schedule: Q04DX003 (ip), vehicle: saline
[6] = dose: 100.0 mg/kg/injection, schedule: Q01DX009 (ip), vehicle: saline
[7] = dose: 100.0 mg/kg/injection, schedule: Q04DX003 (ip), vehicle: saline
[8] = dose: 75.0 mg/kg/injection, schedule: Q01DX001 (ip), vehicle: saline
[9] = dose: 150.0 mg/kg/injection, schedule: Q01DX001 (ip), vehicle: saline
[10] = dose: 100.0 mg/kg/injection, schedule: Q01DX009 (ip), vehicle: Klucel (hydroxypropylcellulose) (HPC)
[11] = dose: 100.0 mg/kg/injection, schedule: Q04DX003 (ip), vehicle: Klucel (hydroxypropylcellulose) (HPC)
[12] = dose: 200.0 mg/kg/injection, schedule: Q04DX003 (ip), vehicle: Klucel (hydroxypropylcellulose) (HPC)
[13] = dose: 400.0 mg/kg/injection, schedule: Q04DX003 (ip), vehicle: Klucel (hydroxypropylcellulose) (HPC)
[14] = dose: 100.0 mg/kg/injection, schedule: Q01DX001 (ip), vehicle: saline
[15] = dose: 200.0 mg/kg/injection, schedule: Q01DX001 (ip), vehicle: saline
[16] = dose: 200.0 mg/kg/injection, schedule: Q01DX009 (ip), vehicle: Klucel (hydroxypropylcellulose) (HPC)
[17] = dose: 400.0 mg/kg/injection, schedule: Q01DX009 (ip), vehicle: Klucel (hydroxypropylcellulose) (HPC)
[18] = dose: 100.0 mg/kg/injection, schedule: Q04DX003 (ip), vehicle: other

Measured: T/C

O=C1c2ccccc2C(=O)c2cc(-c3ccccc3)ccc21
inactive: dose: 100.0 mg/kg/injection, schedule: Q01DX001 (ip), vehicle: saline with Tween-80 90 % of control | dose: 200.0 mg/kg/injection, schedule: Q01DX001 (ip), vehicle: saline with Tween-80 93 % of control | dose: 400.0 mg/kg/injection, schedule: Q01DX001 (ip), vehicle: saline with Tween-80 87 % of control

Nc1ccc(OC(=O)Nc2ccc(O)cc2)cc1
inactive: dose: 53.0 mg/kg/injection, schedule: Q01DX Z (ip), vehicle: other 94 % of control | dose: 80.0 mg/kg/injection, schedule: Q01DX Z (ip), vehicle: other 97 % of control | dose: 80.0 mg/kg/injection, schedule: Q01DX Z (ip), vehicle: saline 89 % of control | dose: 120.0 mg/kg/injection, schedule: Q01DX Z (ip), vehicle: other 105 % of control | dose: 180.0 mg/kg/injection, schedule: Q01DX Z (ip), vehicle: other 100 % of control | dose: 180.0 mg/kg/injection, schedule: Q01DX Z (ip), vehicle: saline 92 % of control | dose: 270.0 mg/kg/injection, schedule: Q01DX Z (ip), vehicle: other 102 % of control | dose: 270.0 mg/kg/injection, schedule: Q01DX Z (ip), vehicle: saline 93 % of control | dose: 404.0 mg/kg/injection, schedule: Q01DX Z (ip), vehicle: other 100 % of control | dose: 405.0 mg/kg/injection, schedule: Q01DX Z (ip), vehicle: saline 92 % of control

CCN1CC(CCN2CCOCC2)C(c2ccccc2)(c2ccccc2)C1=O (stereo not given)
inactive: dose: 6.25 mg/kg/injection, schedule: Q01DX009 (ip), vehicle: saline 111 % of control | [1] 108 % of control | [2] 101 % of control | [3] 87 % of control | [4] 111 % of control | [5] 95 % of control | [6] 101 % of control | [7] 92 % of control

CCCCCCCCC[n+]1cccc(C#N)c1
inactive: dose: 18.75 mg/kg/injection, schedule: Q01DX009 (ip), vehicle: saline 90 % of control | dose: 37.5 mg/kg/injection, schedule: Q01DX009 (ip), vehicle: saline 88 % of control | dose: 37.5 mg/kg/injection, schedule: Q04DX003 (ip), vehicle: acetone 100 % of control | [8] 100 % of control | dose: 75.0 mg/kg/injection, schedule: Q01DX009 (ip), vehicle: saline 90 % of control | dose: 75.0 mg/kg/injection, schedule: Q04DX003 (ip), vehicle: acetone 97 % of control | [9] 102 % of control | dose: 150.0 mg/kg/injection, schedule: Q04DX003 (ip), vehicle: acetone 105 % of control

CC(=O)CC(=O)Nc1cccc([N+](=O)[O-])c1
inactive: [10] 98 % of control | [11] 97 % of control | [12] 91 % of control | [13] 93 % of control

Cc1ccc(C)c(CCC(C)CCCC(C)C)c1 (stereo not given)
inactive: [14] 97 % of control | [15] 104 % of control

OCCN(CCO)CN(CO)c1nc(N(CO)CN(CCO)CCO)nc(N(CO)CN(CCO)CCO)n1
inactive: [6] 100 % of control | [7] 101 % of control | dose: 200.0 mg/kg/injection, schedule: Q01DX009 (ip), vehicle: saline 109 % of control | dose: 200.0 mg/kg/injection, schedule: Q04DX003 (ip), vehicle: saline 101 % of control | dose: 400.0 mg/kg/injection, schedule: Q01DX009 (ip), vehicle: saline 109 % of control | dose: 400.0 mg/kg/injection, schedule: Q04DX003 (ip), vehicle: saline 91 % of control

COc1cc(C=O)ccc1OC(=O)Nc1ccc([N+](=O)[O-])cc1Cl
inactive: [10] 98 % of control | [11] 103 % of control | [16] 98 % of control | [12] 97 % of control | [17] 98 % of control | [13] 105 % of control

CCN(CC)CCC(=O)c1cccc2c1OC(C)(C)C2
inactive: [1] 100 % of control and 105 % of control | dose: 12.5 mg/kg/injection, schedule: Q04DX003 (ip), vehicle: saline 103 % of control | [2] 93 % of control and 100 % of control | [3] 97 % of control | [4] 93 % of control and 102 % of control | [5] 103 % of control

COc1ccc(Cl)cc1NC(=O)c1cccc(C(=O)Nc2cc(Cl)ccc2OC)c1
inactive: [10] 92 % of control | [11] 94 % of control | [16] 93 % of control | [12] 94 % of control | [17] 104 % of control | [13] 92 % of control

CCCN(CCC)CCCC#N
inactive: dose: 100.0 mg/kg/injection, schedule: Q04DX003 (ip), vehicle: saline with Tween-80 95 % of control | dose: 200.0 mg/kg/injection, schedule: Q04DX003 (ip), vehicle: saline with Tween-80 93 % of control

O=c1oc(Cl)c(Cl)c(Cl)c1Cl
inactive: dose: 2.2 mg/kg/injection, schedule: Q01DX Z (ip), vehicle: methylcellulose (MC) 93 % of control

COc1cc([N+](=O)[O-])ccc1C
inactive: dose: 100.0 mg/kg/injection, schedule: Q01DX009 (ip), vehicle: other 111 % of control | [18] 97 % of control | dose: 200.0 mg/kg/injection, schedule: Q01DX009 (ip), vehicle: other 98 % of control | dose: 200.0 mg/kg/injection, schedule: Q04DX003 (ip), vehicle: other 90 % of control | dose: 400.0 mg/kg/injection, schedule: Q01DX009 (ip), vehicle: other 104 % of control | dose: 400.0 mg/kg/injection, schedule: Q04DX003 (ip), vehicle: other 88 % of control

Cc1c2ccn(CCCCCCCCn3ccc4c(C)c5nc6ccccc6c5c(C)c4c3)cc2c(C)c2c1nc1ccccc12
inactive: dose: 0.78 mg/kg/injection, schedule: Q04DX003 (ip), vehicle: other 98 % of control | dose: 1.56 mg/kg/injection, schedule: Q04DX003 (ip), vehicle: other 104 % of control | dose: 3.13 mg/kg/injection, schedule: Q04DX003 (ip), vehicle: other 104 % of control | dose: 6.25 mg/kg/injection, schedule: Q04DX003 (ip), vehicle: other 112 % of control | dose: 12.5 mg/kg/injection, schedule: Q04DX003 (ip), vehicle: other 118 % of control | dose: 25.0 mg/kg/injection, schedule: Q04DX003 (ip), vehicle: other 115 % of control | dose: 50.0 mg/kg/injection, schedule: Q04DX003 (ip), vehicle: other 98 % of control | [18] 109 % of control

CCSC1C(O)C(C(O)CO)OC1n1cc(C)c(=O)[nH]c1=O (stereo not given)
inactive: dose: 100.0 mg/kg/injection, schedule: Q01DX005 (ip), vehicle: saline 102 % of control | dose: 200.0 mg/kg/injection, schedule: Q01DX005 (ip), vehicle: saline 107 % of control

C/C(=N/N=C(N)N)C(F)(F)F
inactive: dose: 15.0 mg/kg/injection, schedule: Q01DX Z (ip), vehicle: saline 104 % of control | dose: 15.0 mg/kg/injection, schedule: Q01DX Z (oral), vehicle: saline 108 % of control | dose: 30.0 mg/kg/injection, schedule: Q01DX Z (ip), vehicle: saline 87 % of control | dose: 30.0 mg/kg/injection, schedule: Q01DX Z (oral), vehicle: saline 106 % of control

O=C(Nc1ccccc1F)Oc1ccc(Cl)cc1Cl
inactive: dose: 50.0 mg/kg/injection, schedule: Q01DX009 (ip), vehicle: Klucel (hydroxypropylcellulose) (HPC) 114 % of control | [10] 111 % of control | dose: 100.0 mg/kg/injection, schedule: Q04DX002 (ip), vehicle: Klucel (hydroxypropylcellulose) (HPC) 105 % of control | [16] 102 % of control | dose: 200.0 mg/kg/injection, schedule: Q04DX002 (ip), vehicle: Klucel (hydroxypropylcellulose) (HPC) 102 % of control

CCCCCC(=O)c1c(O)cc2c(c1O)C(=O)c1c(O)cc(O)cc1C2=O
inactive: [14] 86 % of control | dose: 300.0 mg/kg/injection, schedule: Q01DX001 (ip), vehicle: saline 91 % of control

CCOP(=S)(S)OCC.[Ni]
inactive: dose: 50.0 mg/kg/injection, schedule: Q01DX001 (ip), vehicle: saline 93 % of control | [14] 102 % of control | [15] 100 % of control

Cn1cnc2c3cccnc3ccc21
inactive: [8] 95 % of control | [9] 103 % of control

Cc1cc(C)n(C(N)=O)n1
inactive: [10] 109 % of control | [11] 105 % of control and 104 % of control | [16] 104 % of control | [12] 97 % of control and 102 % of control | [17] 110 % of control | [13] 101 % of control and 104 % of control
